Assay results from PMC6332334, “3-H-[1,2]Dithiole as a New Anti-Trypanosoma cruzi Chemotype: Biological and Mechanism of Action Studies” (Molecules, 2015).
Like-named read-outs stand apart in the source and are kept apart here.

Tests used:
[1] = system: epimastigotes of T. cruzi (Tulahuen 2 strain); assay: Anti-T. cruzi test in vitro (epimastigote growth inhibition); format: cell-based, Trypanosoma cruzi; conditions: for IC50: Trypanosoma cruzi, read-out: IC50 against T. cruzi; for SI (selectivity index): macrophages (J774.1) vs T. cruzi epimastigotes
Protocol: (§1) To evaluate the anti-trypanosomal activity of the synthesized 3H-[1,2]dithioles we used T. cruzi, Tulahuen 2 strain (discrete typing unit, DTU, TcVI [18]) in the epimastigote form. […] To establish the selectivity of the compounds against the parasite, unspecific cytotoxicity against mammalian cells (J774.1 murine macrophages) was studied for the most relevant derivatives. The selectivity indexes (SI) were also determined (Table 1).
We used epimastigotes of the Tulahuen 2 strain (DTU, Tc VI) growing in an axenic milieu (BHI-Tryptose). Cells from a 5–7-day-old culture were inoculated in fresh culture milieu to give an initial concentration of 1 × 10^6 cells/mL. The absorbance at 600 nm of the cells in culture was measured every day. At day 5, the milieu was inoculated with different quantities of the compounds from a stock solution in DMSO (DMSO concentration in the culture milieu never exceeded 0.4%). The control was made in the presence of 0.4% DMSO and in the absence of compounds. […] At day 5, the absorbance of the culture was measured and related to the control. The IC50 value was taken as the concentration of drug needed to reduce the absorbance ratio to 50%.

[2] = target: T1, Trypanosoma cruzi triosephosphate isomerase (TcTIM) (Trypanosoma cruzi, UniProt P52270); assay: Inhibition of enzymatic activity of TcTIM; format: biochemical; conditions: for inhibition at 25 µM: read-out: TcTIM % Inhib25; for inhibition at 200 µM: read-out: TcTIM % Inhib200; for IC50: isolated enzyme, 2 h incubation at 36 °C
T1 construct: made in house; host or cells: Escherichia coli
Protocol: In order to investigate if the 3H-[1,2]dithioles inhibit TcTIM, we initially tested the inhibitory capacity of the compounds at a concentration of 200 μM and then at 25 μM.
Expression and purification of protein: TcTIM was expressed in Escherichia coli and purified as described in the literature. After purification, the enzyme, dissolved in 100 mM triethanolamine, 10 mM EDTA and 1 mM dithiothreitol (pH 8), was precipitated with ammonium sulfate (75% saturation) and stored at 4 °C. Before use, extensive dialysis against 100 mM triethanolamine/10 mM EDTA (pH 7.4) was performed. Protein concentration was determined by absorbance at 280 nm (ε = 36,440 M^−1·cm^−1).
Enzymatic activity assays. Enzymatic activity was determined following the conversion of glyceraldehyde 3-phosphate into dihydroxyacetone phosphate. The decrease in absorbance at 340 nm was followed in a multicell Cary spectrophotometer at 25 °C. The reaction mixture (1 mL, pH 7.4) contained 100 mM triethanolamine, 10 mM EDTA, 0.2 mM NADH, 1 mM glyceraldehyde 3-phosphate, and 0.9 units of α-glycerol phosphate dehydrogenase. The reaction was initiated by addition of 5 ng/mL of the TcTIM.
For inactivation studies, TcTIM was incubated at a concentration of 5 mg/mL in a buffer containing 100 mM triethanolamine, 10 mM EDTA, pH 7.4 and 10% of DMSO at 36 °C. The mixture also contained the compounds at the indicated concentrations. Compounds were dissolved in DMSO. After 2 h, […] was withdrawn and added to 1 mL of reaction mixture for the activity assay. None of the molecules tested here affected the activity of α-glycerol phosphate dehydrogenase, the enzyme used for trapping the product.
The IC50 value was taken as the concentration of drug needed to reduce the enzymatic activity to 50%. The experiments were performed in triplicate.

cruzipain [3] = target: T2, cruzipain (Trypanosoma cruzi, UniProt P25779); assay: Inhibition of T. cruzi cruzipain (Z-Phe-Arg-AMC fluorogenic substrate); format: biochemical; conditions: read-out: Cruzipain % Inhib100
T2 construct: endogenous in cells; host or cells: T. cruzi epimastigotes, Tulahuen 2 strain
Protocol: Initially, we tested the dithioles as inhibitors of the protease cruzipain from T. cruzi at a concentration of 100 μM.
Cruzipain was purified to homogeneity from epimastigotes of the Tulahuen 2 strain by ConA-Sepharose affinity chromatography, as previously described. Cruzipain (2.5 μM ε = 58,285 M^−1·cm^−1) was incubated in 50 mM acetate buffer pH 5.5 with 50 mM DTT and 100 μM inhibitor was added, shaking the solution for 15 min at 27 °C. The derivatives were added diluted in DMSO, and the controls contained the same solvent concentration. The concentration of DMSO never exceeded 1% in the reaction medium. E-64 was used as a positive control of inhibition. Then, the fluorogenic substrate Z-Phe-Arg-AMC (100 μM) was added and the fluorescence was measured during 10 min at intervals of 3 s (excitation at 350 nm and emission at 460 nm) using a Varioskan Flash Spectrophotometer. From the slope of the negative control, we calculated the total (100%) enzyme activity, while the slopes obtained in the presence of the compounds yielded the percentage of remaining enzyme activity. The percentage of enzyme inhibition was determined as […]. The experiments were done in duplicate.

cruzipain [4] = target: T2, cruzipain; assay: as above; format: biochemical; conditions: isolated enzyme
[5] = system: J774.1 murine macrophages; assay: Unspecific in vitro cytotoxicity of mammalian cells (MTT); format: cell-based; conditions: Mus musculus, 48 h exposure, read-out: IC50 against Macrophages
Protocol: as §1
J774.1 murine macrophage cells (ATCC, Manassas, VA, USA) were grown in DMEM culture milieu containing 4 mM L-glutamine and supplemented with 10% heat-inactivated fetal calf serum. […] Afterwards, cells were exposed for 48 h to the compounds (25–400 μM) or vehicle for control (0.4% DMSO), and additional controls (cells in medium) were used in each test. Cell viability was then assessed by measuring the mitochondria-dependent reduction of MTT (3-(4,5-dimethylthiazol-2-yl)-2,5-diphenyltetrazolium bromide) to formazan. For this purpose, MTT in sterile PBS (0.2% glucose) pH 7.4 was added to the macrophages to achieve a final concentration of 0.1 mg/mL and the cells were incubated at 37 °C for 3 h. After removing the medium, formazan crystals were dissolved in 180 μL of DMSO and 20 μL of MTT buffer (0.1 M glycine, 0.1 M NaCl, 0.5 mM EDTA, pH 10.5) and the absorbance at 560 nm was measured. The IC50 was defined as the drug concentration at which 50% of the cells were viable, relative to the control (no drug added), and was determined by analysis using OriginLab8.5® sigmoidal regression (% of viable cells vs. logarithm of the compound concentration). Samples were performed in triplicate.

[6] = epimastigotes, Tulahuen 2 strain, triplicate
[7] = percentage of enzymatic inhibition at 25 μM
[8] = percentage of enzymatic inhibition at 200 μM
[9] = percentage of enzymatic inhibition at 100 μM

T2 sequence (P25779 123-467): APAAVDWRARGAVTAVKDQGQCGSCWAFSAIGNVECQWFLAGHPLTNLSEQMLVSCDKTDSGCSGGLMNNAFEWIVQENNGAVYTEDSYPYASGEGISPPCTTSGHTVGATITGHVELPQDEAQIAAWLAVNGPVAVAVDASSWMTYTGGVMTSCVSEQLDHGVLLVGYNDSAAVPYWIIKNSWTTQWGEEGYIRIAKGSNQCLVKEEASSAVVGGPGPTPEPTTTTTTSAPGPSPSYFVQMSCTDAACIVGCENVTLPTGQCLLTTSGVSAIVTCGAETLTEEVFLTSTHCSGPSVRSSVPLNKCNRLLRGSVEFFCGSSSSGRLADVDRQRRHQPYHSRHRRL
T1 sequence (P52270 whole entry): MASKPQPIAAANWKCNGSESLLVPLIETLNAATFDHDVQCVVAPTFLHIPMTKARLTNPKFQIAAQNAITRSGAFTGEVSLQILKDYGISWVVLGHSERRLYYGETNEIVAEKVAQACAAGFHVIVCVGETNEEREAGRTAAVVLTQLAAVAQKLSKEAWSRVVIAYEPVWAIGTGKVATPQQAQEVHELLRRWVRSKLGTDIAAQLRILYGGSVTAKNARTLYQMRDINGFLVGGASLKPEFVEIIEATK

Row | Structure (SMILES) | IC50 [1, 6] | IC50 [2] | inhibition at 25 µM [2, 7] | inhibition at 200 µM [2, 8] | inhibition at 100 µM (cruzipain [3]; [9]) | IC50 (cruzipain [4]) | also measured
1 | O=C(Cc1ccccc1)Oc1ccc(-c2cc(=S)ss2)cc1 [Derivative 1] |  |  |  |  |  |  | IC50 ([1]; TULAHUEN): > 25 µM; inhibition at 25 µM [2]: 33 ± 1.9%; inhibition at 200 µM [2]: 77%; inhibition at 100 µM (cruzipain [3]): 21.3 ± 0.3%
2 | COc1ccc(-c2cc(=S)ss2)cc1 [Derivative 5] | > 25 µM | 1.2 ± 0.05 µM | 80 ± 2.3% | 86% | 89 ± 0.5% | 4 ± 2 µM | IC50 against T. cruzi [1, 6]: inactive
3 | Oc1ccc(-c2cc(=S)ss2)cc1 [Derivative 6] | 25 ± 1 µM |  | 35 ± 3% | 71% | 59.3 ± 0.3% |  | SI (selectivity index) [1]: 2.0; IC50 [5]: 51 ± 2 µM
4 | O=C(/C=C/c1ccccc1)Oc1ccc(-c2cc(=S)ss2)cc1 [Derivative 7] | > 25 µM |  |  | 14% | 78.4 ± 0.6% |  | 
5 | O=C(/C=C/c1ccc(C(=O)Oc2ccc(-c3cc(=S)ss3)cc2)cc1)c1ccccc1 [Derivative 8] | > 25 µM |  |  |  | 58 ± 0.1% |  | 
6 | O=C(Oc1ccc(-c2cc(=S)ss2)cc1)c1ccc(/C=C/C(=O)c2ccccc2O)cc1 [Derivative 9] | 25 ± 0.5 µM |  |  | 50% | 77.9 ± 0.6% |  | SI (selectivity index) [1]: 2.5; IC50 [5]: 63 ± 2 µM
7 | CC(=O)COc1ccc(-c2cc(=S)ss2)cc1 [Derivative 10] | > 25 µM |  | 61 ± 1% | 70% | 73.9 ± 0.1% |  | 
8 | O=C(COc1ccc(-c2cc(=S)ss2)cc1)c1ccccc1 [Derivative 11] | > 25 µM |  |  |  | 96.3 ± 0.7% | 17.1 ± 3.6 µM | 
9 | O=C(COc1ccc(-c2cc(=S)ss2)cc1)c1ccc2ccccc2c1 [Derivative 12] | > 25 µM |  |  | 70% | 91.5 ± 0.6% | 21.6 ± 6.1 µM | TcTIM % Inhib25 [2, 7]: ni ^d
10 | O=C(CS/C(C(=O)c1ccccc1)=C1\C=C(c2ccc(O)cc2)SS1)c1ccccc1 [Derivative 13] | 5.5 ± 0.9 µM | 3.35 ± 0.14 µM | 75 ± 6% | 86% | 61 ± 0.3% |  | SI (selectivity index) [1]: 6.2; IC50 [5]: 34 ± 0.5 µM
11 | COc1ccc(C2=C/C(=C(\SCC(=O)c3ccccc3)C(=O)c3ccccc3)SS2)cc1 [Derivative 16] | > 25 µM | 7.53 ± 0.1 µM | 63 ± 0.1% | 77% | 62.3 ± 0.3% |  | 
12 | COc1ccc(C2=C/C(=C(\SCC(=O)c3ccc4ccccc4c3)C(=O)c3ccc4ccccc4c3)SS2)cc1 [Derivative 17] | > 25 µM |  | 52 ± 2.5% | 81% | 82.6 ± 0.6% |  | 
13 | O=C(C[S+]=c1cc(-c2ccc(O)cc2)ss1)c1ccc2ccccc2c1 [Derivative 18] | > 25 µM | 11.03 ± 0.03 µM | 75 ± 0.3% | 70% | 77.1 ± 0.1% |  | 
14 | COc1ccc(-c2cc(=[S+]CC(C)=O)ss2)cc1 [Derivative 19] | > 25 µM | 3.26 ± 0.05 µM | 73 ± 3.2% | 95% | 90.5 ± 0.7% | 11.3 ± 0.6 µM | IC50 against T. cruzi [1, 6]: inactive
15 | COc1ccc(-c2cc(=[S+]CC(=O)c3ccccc3)ss2)cc1 [Derivative 20] | > 25 µM |  |  |  | 72 ± 0.1% |  | 
16 | COc1ccc(-c2cc(=[S+]CC(=O)c3ccc4ccccc4c3)ss2)cc1 [Derivative 21] | > 25 µM |  |  | 65% | 90.2 ± 0.6% | 17.7 ± 3.9 µM | 
